Test results: patent US20230085307A1, “PYRIDAZINONE COMPOUND AND HERBICIDE” (NISSAN CHEMICAL CORPORATION, priority 2019, published 2023)

Tests used:
Japanese bulrush = assay: Test Example 2: herbicidal activity, application during weed generation under submerged conditions (Table 17, symbol B); assay type: in vivo, Japanese bulrush (Schoenoplectus juncoides); details: AAH 320 g/ha; application during weed generation, submerged conditions
Summary of the method: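 Steps: fill Wagner pots with alluvial soil; add water to give 4 cm depth; sow the species mixed; grow under glass at 25–30° C.; at 1–2 leaves apply water-diluted emulsion formulation to the water surface at a fixed herbicide amount; score after 3 weeks.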

Chinese sprangletop = assay: Test Example 3: herbicidal effect by foliage application, Wagner pot (Table 18, symbol D); assay type: in vivo, chinese sprangletop (Leptochloa chinensis); details: 320 g/ha
Summary of the method: (§1)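 Plants were sown in alluvial soil held under 0.1–0.5 cm standing water and grown 14 days in a greenhouse at 25–30 °C. An emulsifiable formulation, water-diluted to the set dose, was then sprayed onto the foliage, and effects were scored three weeks later using previously defined criteria.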

rice flat sedge = assay: Test Example 3: herbicidal effect by foliage application, Wagner pot (Table 18, symbol E); assay type: in vivo, rice flat sedge (Cyperus iria); details: 320 g/ha
Summary of the method: as §1

green foxtail = assay: Test Example 4: herbicidal effect by soil treatment (Table 19, symbol G); assay type: in vivo, green foxtail (Setaria viridis); details: amount of applied herbicide 320 g/ha
Summary of the method: (§2)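 Emulsion of test compound, water-diluted to predetermined amount, sprayed on soil after sowing (seed depth ~1.5 cm, sterilized diluvial soil). Greenhouse, 25–30° C. Effect graded at three weeks post-spray.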

barnyard grass [1] = assay: Test Example 4: herbicidal effect by soil treatment (Table 19, symbol H); assay type: in vivo, barnyard grass (Echinochloa crus-galli); details: amount of applied herbicide 320 g/ha
Summary of the method: as §2

blackgrass [2] = assay: Test Example 4: herbicidal effect by soil treatment (Table 19, symbol J); assay type: in vivo, blackgrass (Alopecurus myosuroides); details: amount of applied herbicide 320 g/ha
Summary of the method: as §2

Italian ryegrass [3] = assay: Test Example 4: herbicidal effect by soil treatment (Table 19, symbol K); assay type: in vivo, Italian ryegrass (Lolium multiflorum); details: amount of applied herbicide 320 g/ha
Summary of the method: as §2

lambsquarters [4] = assay: Test Example 4: herbicidal effect by soil treatment (Table 19, symbol O); assay type: in vivo, lambsquarters (Chenopodium album); details: amount of applied herbicide 320 g/ha
Summary of the method: as §2

barnyard grass [5] = assay: Test Example 5: herbicidal effect by foliage application, plastic box (Table 20, symbol H); assay type: in vivo, barnyard grass (Echinochloa crus-galli); details: foliage application, 320 g/ha, three weeks after application
Summary of the method: (§3)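 Post-emergence foliar test in sterilized diluvial soil. Compound applied as water-diluted emulsion at a predetermined rate to 14-day-old plants; evaluation at three weeks.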

wild oat = assay: Test Example 5: herbicidal effect by foliage application, plastic box (Table 20, symbol I); assay type: in vivo, wild oat (Avena fatua); details: foliage application, 320 g/ha, three weeks after application
Summary of the method: as §3

blackgrass [6] = assay: Test Example 5: herbicidal effect by foliage application, plastic box (Table 20, symbol J); assay type: in vivo, blackgrass (Alopecurus myosuroides); details: foliage application, 320 g/ha, three weeks after application
Summary of the method: as §3

Italian ryegrass [7] = assay: Test Example 5: herbicidal effect by foliage application, plastic box (Table 20, symbol K); assay type: in vivo, Italian ryegrass (Lolium multiflorum); details: foliage application, 320 g/ha, three weeks after application
Summary of the method: as §3

windgrass = assay: Test Example 5: herbicidal effect by foliage application, plastic box (Table 20, symbol L); assay type: in vivo, windgrass (Apera spica-venti); details: foliage application, 320 g/ha, three weeks after application
Summary of the method: as §3

velvetleaf = assay: Test Example 5: herbicidal effect by foliage application, plastic box (Table 20, symbol M); assay type: in vivo, velvetleaf (Abutilon theophrasti); details: foliage application, 320 g/ha, three weeks after application
Summary of the method: as §3

lambsquarters [8] = assay: Test Example 5: herbicidal effect by foliage application, plastic box (Table 20, symbol O); assay type: in vivo, lambsquarters (Chenopodium album); details: foliage application, 320 g/ha, three weeks after application
Summary of the method: as §3

chickweed = assay: Test Example 5: herbicidal effect by foliage application, plastic box (Table 20, symbol P); assay type: in vivo, common chickweed (Stellaria media); details: foliage application, 320 g/ha, three weeks after application
Summary of the method: as §3

persian speedwell = assay: Test Example 5: herbicidal effect by foliage application, plastic box (Table 20, symbol R); assay type: in vivo, Persian speedwell (Veronica persica); details: foliage application, 320 g/ha, three weeks after application
Summary of the method: as §3

SMILES	herbicidal effect rating, B: Japanese bulrush (Japanese bulrush)	herbicidal effect on Chinese sprangletop (D) (Chinese sprangletop)	herbicidal effect on rice flat sedge (E) (rice flat sedge)	G: green foxtail, herbicidal effect grade (green foxtail)	H: barnyard grass, herbicidal effect grade (barnyard grass [1])	J: blackgrass, herbicidal effect grade (blackgrass [2])	K: Italian ryegrass, herbicidal effect grade (Italian ryegrass [3])	O: lambsquarters, herbicidal effect grade (lambsquarters [4])	H: barnyard grass, herbicidal effect grade (barnyard grass [5])	I: wild oat, herbicidal effect grade (wild oat)	J: blackgrass, herbicidal effect grade (blackgrass [6])	K: Italian ryegrass, herbicidal effect grade (Italian ryegrass [7])	L: windgrass, herbicidal effect grade (windgrass)	M: velvetleaf, herbicidal effect grade (velvetleaf)	O: lambsquarters, herbicidal effect grade (lambsquarters [8])	P: chickweed, herbicidal effect grade (chickweed)	R: persian speedwell, herbicidal effect grade (persian speedwell)
COc1ccc2c(-c3c(O)c(Cl)nn(C)c3=O)c(-c3ccccc3OC)sc2c1 [Compound No. 3-088, 6-chloro-5-hydroxy-4-(6-methoxy-2-(2-methoxyphenyl)benzo[b]thiophen-3-yl)-2-methylpyridazin-3(2H)-one]	3 (Herbicidal rate of 40% or more and less than 70%)	4 (Herbicidal rate of 70% or more and less than 90%)	5 (Herbicidal rate of 90% or more (almost completely withered))	5 (Herbicidal rate of 90% or more (almost completely withered))	5 (Herbicidal rate of 90% or more (almost completely withered))	0 (Herbicidal rate of 5% or less (almost no effect))	0 (Herbicidal rate of 5% or less (almost no effect))	5 (Herbicidal rate of 90% or more (almost completely withered))	4 (Herbicidal rate of 70% or more and less than 90%)	3 (Herbicidal rate of 40% or more and less than 70%)	3 (Herbicidal rate of 40% or more and less than 70%)	0 (Herbicidal rate of 5% or less (almost no effect))	3 (Herbicidal rate of 40% or more and less than 70%)	4 (Herbicidal rate of 70% or more and less than 90%)	4 (Herbicidal rate of 70% or more and less than 90%)	5 (Herbicidal rate of 90% or more (almost completely withered))	5 (Herbicidal rate of 90% or more (almost completely withered))
COc1ccccc1-c1sc2cc(OCC(F)(F)F)ccc2c1-c1c(O)c(C)nn(C)c1=O [Compound No. 3-116, 5-hydroxy-4-(2-(2-methoxyphenyl)-6-(2,2,2-trifluoroethoxy)benzo[b]thiophen-3-yl)-2,6-di methylpyridazin-3 (2H)-one]	3 (Herbicidal rate of 40% or more and less than 70%)	5 (Herbicidal rate of 90% or more (almost completely withered))	5 (Herbicidal rate of 90% or more (almost completely withered))	5 (Herbicidal rate of 90% or more (almost completely withered))	5 (Herbicidal rate of 90% or more (almost completely withered))	4 (Herbicidal rate of 70% or more and less than 90%)	5 (Herbicidal rate of 90% or more (almost completely withered))	5 (Herbicidal rate of 90% or more (almost completely withered))	5 (Herbicidal rate of 90% or more (almost completely withered))	5 (Herbicidal rate of 90% or more (almost completely withered))	5 (Herbicidal rate of 90% or more (almost completely withered))	5 (Herbicidal rate of 90% or more (almost completely withered))	5 (Herbicidal rate of 90% or more (almost completely withered))	5 (Herbicidal rate of 90% or more (almost completely withered))	5 (Herbicidal rate of 90% or more (almost completely withered))	5 (Herbicidal rate of 90% or more (almost completely withered))	5 (Herbicidal rate of 90% or more (almost completely withered))
